Molecular target: T1, FPR2 (Homo sapiens, UniProt P25090)
T1 construct: expressed in transfected cells
T1 sequence (P25090 1-351): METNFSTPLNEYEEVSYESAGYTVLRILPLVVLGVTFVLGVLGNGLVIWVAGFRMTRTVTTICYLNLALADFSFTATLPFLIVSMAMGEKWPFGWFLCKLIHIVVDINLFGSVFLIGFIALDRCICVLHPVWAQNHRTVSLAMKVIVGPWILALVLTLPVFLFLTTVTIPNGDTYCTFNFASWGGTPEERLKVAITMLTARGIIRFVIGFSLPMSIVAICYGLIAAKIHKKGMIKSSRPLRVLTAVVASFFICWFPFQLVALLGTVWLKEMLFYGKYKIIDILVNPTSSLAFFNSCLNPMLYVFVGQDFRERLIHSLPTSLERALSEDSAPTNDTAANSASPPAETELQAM
Test: FPR2 calcium activity assay on FLIPR Tetra in CHO-Gα16 cells stably expressing FPR2
Type: cell-based
Details: for EC50: compound-induced calcium activity, 0.61 to 10,000 nM
Method: CHO-Gα16 cells stably expressing FPR2 were cultured in F12 media (10% FBS, 1% PSA, 400 μg/ml geneticin and 50 μg/ml hygromycin). In general, the day before the experiment, 18,000 cells/well were plated in a 384-well clear bottom poly-D-lysine coated plate. The following day the screening compound-induced calcium activity was assayed on a FLIPR^Tetra. The drug plates were prepared in 384-well microplates using EP3 and MultiPROBE robotic liquid handling systems. Compounds were tested at concentrations ranging from 0.61 to 10,000 nM. Results are expressed as EC50 (nM) and % efficacy values.

FPR2 Gα16-CHO (%eff) | EC50 | Compound
(0.94) | 6 nM | CC(=O)NCCNC(=O)CC1(C(C)C)NC(=O)N(NC(=O)Nc2ccc(Br)cc2)C1=O (stereo not drawn) [Compound 1, N-[2-(Acetylamino)ethyl]-2-[1-{[(4-Bromophenyl)carbamoyl]amino}-2,5-dioxo-4-(propan-2-yl)imidazolidin-4-yl]acetamide]
(0.97) | 10 nM | CC(=O)OCCNC(=O)CC1(C(C)C)NC(=O)N(NC(=O)Nc2ccc(Br)cc2)C1=O (stereo not drawn) [Compound 3, 2-({[1-{[(4-Bromophenyl)carbamoyl]amino}-2,5-Dioxo-4-(propan-2-yl)imidazolidin-4-yl]acetyl}amino)ethyl acetate]
(0.94) | 4 nM | CC(=O)OCCNC(=O)CC1(C(C)C)NC(=O)N(NC(=O)Nc2ccc(Br)cc2F)C1=O (stereo not drawn) [Compound 2, 2-({[1-{[(4-Bromo-2-Fluorophenyl)carbamoyl]amino}-2,5-dioxo-4-(propan-2-yl)imidazolidin-4-yl]acetyl}amino)ethyl acetate]

From patent US9920013B2, “2,5-dioxoimidazolidin-1-yl-3-urea derivatives as formyl peptide modulators” (Allergan, Inc., priority 2014, dated 2018)
